Values of other authors as cited in patent publication US7112576B1, “Compositions and methods for cryopreservation of peripheral blood lymphocytes” (Regents of the University of Minnesota, priority 1999, dated 2006).

Tested on: patients who received cryopreserved autologous cell grafts
Conditions: attributed to the infusion of DMSO

patients exhibiting dyspnea: 83%
patients exhibiting transient hypertension: 96%
SMILES: C[S+](C)[O-] [DMSO, dimethylsulfoxide]
patients exhibiting decreased heart rates: 98%
